# From patent US20240376094A2, “SELECTIVE BCL-XL PROTAC COMPOUNDS AND METHODS OF USE” (Les Laboratoires Servier, priority 2021, published 2024)
# How the values were obtained:
# [1] = molecular target: T1, endogenous BCL-xL (Homo sapiens, UniProt Q07817); assay: Degradation of endogenous BCL-xL in COR-L105 (ProteinSimple Jess); assay type: cell-based; details: COR-L105, 24 h, COR-L105, dose 300 nM, read-out: % BCL-xL vs. Untreated, COR-L105
# T1 construct: endogenous in cells; host or cells: COR-L105 (ECACC No. 92031918); NCI-H1650 (ATCC No. CRL-5883)
# T1 sequence (Q07817 whole entry): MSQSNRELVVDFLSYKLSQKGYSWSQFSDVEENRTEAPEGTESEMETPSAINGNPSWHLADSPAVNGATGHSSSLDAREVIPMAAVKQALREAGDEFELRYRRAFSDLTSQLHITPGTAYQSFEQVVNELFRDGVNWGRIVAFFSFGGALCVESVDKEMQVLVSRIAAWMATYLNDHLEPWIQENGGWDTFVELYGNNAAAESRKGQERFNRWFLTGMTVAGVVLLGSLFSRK
# Procedure, shortened: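 COR-L105 cells (2,000,000/well) treated 24 h at 37 °C with compound at 100–300 nM final, singlet, alongside untreated cells. RIPA lysates normalized by BCA to 1.5 mg/mL, then BCL-xL detected by capillary immunoassay (2–40 kDa Jess) comparing treated with untreated lysates.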
# [2] = tested on: MOLT-4 cells; assay: MOLT-4 cell viability, MTT assay; assay type: cell-based; details: Homo sapiens, MOLT-4, 48 h
# Procedure, shortened: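 MOLT-4 cells in RPMI 1640 with 10% FBS were exposed to compounds for 48 h at 9 concentrations (3.16-fold dilutions, triplicates). After 4 h with MTT and overnight SDS/HCl solubilisation, absorbance was read at 540 nm. IC50 came from four-parameter fits versus control, as the mean of ≥2 independent experiments.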
smiles,measurement,setting,value
"Cc1ncsc1-c1ccc(CNC(=O)[C@@H]2CC(O)CN2C(=O)C(NC(=O)CCCCCCC(=O)N2CCN(CCOC34CC5(C)CC(C)(CC(Cn6ncc(-c7ccc(N8CCCc9c8nnc(Nc8nc%10ccccc%10s8)c9C)nc7C(=O)O)c6C)(C5)C3)C4)CC2)C(C)(C)C)cc1 (stereo in doubt) [Example 24, 6-[3-(1,3-benzothiazol-2-ylamino)-4-methyl-6,7-dihydro-5H-pyrido[2,3-c]pyridazin-8-yl]-3-[1-[[3-[2-[4-[8-[[(1S)-1-[(2S,4R)-4-hydroxy-2-[[4-(4-methylthiazol-5-yl)phenyl]methylcarbamoyl]pyrrolidine-1-carbonyl]-2,2-dimethyl-propyl]amino]-8-oxo-octanoyl]piperazin-1-yl]ethoxy]-5,7-dimethyl-1-adamantyl]methyl]-5-methyl-pyrazol-4-yl]pyridine-2-carboxylic acid]",remaining activity at 0.3 µM,[1],40%
same,IC50,[2],2.64 nM
